In PubChem BioAssay (NCI):
Several values for one entry are separate records, joined by “and”; a condition that tells them apart may be missing. Identical values can stand only once.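 All cell lines were grown in 96-well plates and treated with compound for 48 hours. Here, GI50 denotes the concentration required for 50% inhibition of growth. TGI: total growth inhibition.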

Columns and labels:
Assay in all cases: NCI anticancer screen, dose series, 48 h
786-0 renal = tested on: 786-0 renal
HCT-116 colon = tested on: HCT-116 colon
HL-60(TB) leukemia = tested on: HL-60(TB) leukemia
HOP-92 NSCLC = tested on: HOP-92 NSCLC
LOX IMVI melanoma = tested on: LOX IMVI melanoma
MDA-MB-435 = tested on: MDA-MB-435
PC-3 prostate = tested on: PC-3 prostate
SF-295 CNS = tested on: SF-295 CNS
U251 CNS = tested on: U251 CNS
UACC-62 melanoma = tested on: UACC-62 melanoma

SMILES	GI50 (786-0 renal)	TGI (786-0 renal)	GI50 (HCT-116 colon)	TGI (HCT-116 colon)	GI50 (HL-60(TB) leukemia)	TGI (HL-60(TB) leukemia)	GI50 (HOP-92 NSCLC)	TGI (HOP-92 NSCLC)	GI50 (LOX IMVI melanoma)	TGI (LOX IMVI melanoma)	GI50 (MDA-MB-435)	TGI (MDA-MB-435)	GI50 (PC-3 prostate)	TGI (PC-3 prostate)	GI50 (SF-295 CNS)	TGI (SF-295 CNS)	GI50 (U251 CNS)	TGI (U251 CNS)	GI50 (UACC-62 melanoma)	TGI (UACC-62 melanoma)
C=CC(COC(c1ccccc1)(c1ccccc1)c1ccccc1)N(CC)CC (stereo not given)	11400 nM	27.7 µM	3430 nM	14.3 µM	3680 nM	16.2 µM	4500 nM	18 µM	4730 nM	18.8 µM	4040 nM	16.3 µM	4020 nM	15.6 µM	1740 nM	3.78 µM	2980 nM	12 µM	3610 nM	12.5 µM
COc1cc(-c2csc(NC(=O)Nc3cc(Cl)cc(Cl)c3)n2)cc(OC)c1OC	1840 nM	3.33 µM	1600 nM	2.97 µM	3650 nM	> 100 µM	1700 nM	3.73 µM	1930 nM	3.96 µM	1900 nM	3.96 µM	1590 nM	3.61 µM	1550 nM	3.01 µM	1680 nM	3.15 µM	1610 nM	3.11 µM
O=C1OCC2=C1C(c1ccccc1)c1cc3c(cc1N2CCO)OCCO3 (stereo not given)	288 nM	> 50 µM	226 nM	> 18.7 µM	118 nM	0.406 µM	–	–	360 nM	> 50 µM	113 nM	0.32 µM	182 nM	> 50 µM	183 nM	–	279 nM	> 50 µM	–	> 50 µM
Oc1ccc(N=Nc2ccccn2)c(O)c1	394 nM	> 100 µM	428 nM	> 100 µM	412 nM	8.75 µM	2090 nM	> 100 µM	365 nM	> 100 µM	835 nM	> 100 µM	775 nM	> 100 µM	522 nM	> 100 µM	843 nM	> 100 µM	576 nM	58.2 µM
O=C(/C=C\c1ccccc1)N1CCc2ccccc2C1	–	> 100 µM	–	> 100 µM	–	83.6 µM	–	> 100 µM	–	> 100 µM	–	84.1 µM	–	> 100 µM	–	> 100 µM	–	> 100 µM	–	> 100 µM
O=C(O)/C(=C\c1ccncc1)c1cccc2ccccc12	–	> 100 µM	–	> 100 µM	–	> 100 µM	–	> 100 µM	–	> 100 µM	–	> 100 µM	–	> 100 µM	–	> 100 µM	–	> 100 µM	–	–
C/C(=N\NC(=S)N(C)C)c1ccccn1	15.4 nM	11.3 µM	0.123 nM	–	0.325 nM	–	–	17.8 µM	2.15 nM	0.141 µM and 0.0176 µM	4.01 nM	18.5 µM	132 nM	15.9 µM	12 nM	13.1 µM	2.45 nM	6.73 µM	–	2.38 µM
COc1cccc2c1n([O-])c1cccc(OC)c1[n+]2=O	8780 nM	28.8 µM	3700 nM	64.3 µM	3230 nM	9.12 µM	16300 nM	> 100 µM	5190 nM	27.2 µM	10900 nM	36.2 µM	7760 nM	35.3 µM	3030 nM	18.5 µM	10400 nM	48.2 µM	9220 nM	27.4 µM
CCN(CC)C(=S)[S][Bi]([S]C(=S)N(CC)CC)[S]C(=S)N(CC)CC	163 nM	0.299 µM	85.8 nM	0.247 µM	127 nM	19.9 µM	136 nM	0.276 µM	261 nM	0.745 µM	984 nM	2.2 µM	263 nM	1.04 µM	1730 nM	3.16 µM	1120 nM	2.34 µM	252 nM	0.806 µM
CCCCCCCCCCCCCCCCCC(=O)Nc1ccn(C2OC(CO)C(O)C2O)c(=O)n1 (stereo not given)	–	> 100 µM	–	> 100 µM	–	41.8 µM	–	> 100 µM	–	39.4 µM	–	> 100 µM	–	> 100 µM	–	> 100 µM	–	> 100 µM	–	> 100 µM
O=C(NC(=O)c1ccccc1[N+](=O)[O-])Nc1ccc(Oc2ncc(Cl)cn2)c(C(F)(F)F)c1	–	24.6 µM	–	27.3 µM	–	0.125 µM	–	3.24 µM	–	13.8 µM	–	< 0.0123 µM	–	0.0658 µM	–	> 4.64 µM	–	10.8 µM	–	> 100 µM
O=C(NC(=S)Nc1cc(Cl)ccc1O)c1cccc(Br)c1	38000 nM	> 100 µM	10800 nM	> 100 µM	7120 nM	> 100 µM	10500 nM	59.2 µM	15800 nM	> 100 µM	13900 nM	> 100 µM	6780 nM	> 100 µM	3590 nM	24.9 µM	3950 nM	> 100 µM	6240 nM	> 100 µM
CC(C)(C)c1ccc(NS(=O)(=O)c2ccc3nc(NC(=O)c4cnccn4)[nH]c3c2)cc1	3350 nM	14.8 µM	3170 nM	19.2 µM	3670 nM	15.7 µM	1500 nM	5.92 µM	2610 nM	15.4 µM	346 nM	1.53 µM	1650 nM	10.6 µM	743 nM	5.09 µM	3960 nM	19.6 µM	1110 nM	13.2 µM
COc1ccc(Cn2cc3c(c2-c2cc(OC)c(OC)c(OC)c2)CCc2cnoc2-3)cc1	575 nM	> 100 µM	386 nM	> 100 µM	204 nM	0.647 µM	> 21400 nM	> 100 µM	813 nM	> 100 µM	40.4 nM	0.208 µM	473 nM	> 100 µM	129 nM	0.821 µM	393 nM	> 100 µM	342 nM	> 23 µM
O=[N+]([O-])c1cccc2nccc(NCCCO)c12	–	37 µM	–	> 100 µM	–	36.8 µM	–	–	–	31.7 µM	–	26.9 µM	–	69.8 µM	–	32 µM	–	31.3 µM	–	23.3 µM
COc1cc(NC(=O)C2=C(N3CCOCC3)/C(=C/c3ccc(Cl)cc3)CC2)cc(OC)c1OC	10400 nM	33.1 µM	28500 nM	> 100 µM	> 100000 nM	> 100 µM	–	–	> 100000 nM	> 100 µM	> 100000 nM	> 100 µM	6060 nM	> 100 µM	7090 nM	40.7 µM	16800 nM	59.7 µM	> 100000 nM	> 100 µM

SMILES	GI50 (786-0 renal)	TGI (786-0 renal)	GI50 (HCT-116 colon)	TGI (HCT-116 colon)	GI50 (HL-60(TB) leukemia)	TGI (HL-60(TB) leukemia)	GI50 (HOP-92 NSCLC)	TGI (HOP-92 NSCLC)	GI50 (LOX IMVI melanoma)	TGI (LOX IMVI melanoma)	GI50 (MDA-MB-435)	TGI (MDA-MB-435)	GI50 (PC-3 prostate)	TGI (PC-3 prostate)	GI50 (SF-295 CNS)	TGI (SF-295 CNS)	GI50 (U251 CNS)	TGI (U251 CNS)	GI50 (UACC-62 melanoma)	TGI (UACC-62 melanoma)
Nc1c(C(=O)Nc2cccc(Cl)c2Cl)sc2nc3c(cc12)C(=O)CCC3	> 100000 nM	> 100 µM	> 100000 nM	> 100 µM	> 100000 nM	> 100 µM	> 100000 nM	> 100 µM	> 100000 nM	> 100 µM	277 nM	> 100 µM	–	–	476 nM	> 100 µM	> 100000 nM	> 100 µM	–	–
O=C(O)Cn1cc([N+](=O)[O-])c(=O)c2ccccc21	–	> 100 µM	–	> 100 µM	–	> 100 µM	–	–	–	–	–	> 100 µM	–	> 100 µM	–	> 100 µM	–	> 100 µM	–	> 100 µM
CCSc1ccc(C2C(Br)C(=O)N2c2cc(OC)c(OC)c(OC)c2)cc1 (stereo not given)	340 nM	13.1 µM	222 nM	10.6 µM	214 nM	0.527 µM	443 nM	14.1 µM	834 nM	16.6 µM	–	–	297 nM	> 100 µM	87 nM	> 100 µM	345 nM	39.8 µM	97.3 nM	30 µM
CCC[CH2][Sn]1([CH2]CCC)[O]CC(C)[O]1 (stereo not given)	1480 nM	2.84 µM	1780 nM	3.43 µM	661 nM	2.62 µM	1160 nM	2.52 µM	1230 nM	2.66 µM	–	–	–	–	1400 nM	2.74 µM	1390 nM	2.72 µM	1310 nM	2.91 µM
C[C@]12CCC(=O)C=C1CC[C@@H]1C2CC[C@]2(C)c3nn(-c4ccccc4)nc3CC12 (stereo not given in full)	–	> 100 µM	–	> 100 µM	–	> 100 µM	–	> 100 µM	–	> 100 µM	–	–	–	–	–	> 100 µM	–	> 100 µM	–	> 100 µM
CC#Cc1nc(Nc2cc(C)[nH]n2)c2ccccc2n1	5860 nM	29 µM	3660 nM	39.4 µM	–	–	3550 nM	21.1 µM	2070 nM	4.4 µM	3180 nM	13.3 µM	5220 nM	21.6 µM	12300 nM	34.5 µM	11300 nM	27.4 µM	2670 nM	11.8 µM
CC1(C)CC(N(C(=O)/C=C/c2ccc([N+](=O)[O-])o2)C2CCCCC2)CC(C)(C)N1	–	19.4 µM	–	12 µM	–	6.4 µM	–	14.8 µM	–	25.4 µM	–	–	–	–	–	26.4 µM	–	18.1 µM	–	21.6 µM
COc1cc2c3c(n(C)c(=O)c2cc1OC)-c1cc2c(cc1/C3=C\CCNCCCN)OCO2	1990 nM	12.5 µM	1490 nM	3.39 µM	927 nM	8.03 µM	1450 nM	11.1 µM	–	–	2480 nM	15.9 µM	2090 nM	10.2 µM	–	–	470 nM	3.44 µM	–	–
O=C1C(Cl)=C(Nc2cccc(O)c2)C(=O)N1Cc1ccc(Cl)cc1Cl	1940 nM	18.8 µM	2010 nM	12.4 µM	–	–	12200 nM	26.9 µM	4060 nM	15.5 µM	6720 nM	19.5 µM	4880 nM	19.6 µM	11300 nM	25.1 µM	4310 nM	15.5 µM	3490 nM	14.7 µM
O=[N+]([O-])c1ccc(C=NC23CC4CC(CC(C4)C2)C3)cc1	–	> 100 µM	–	> 100 µM	–	> 100 µM	–	> 100 µM	–	> 100 µM	–	–	–	–	–	> 100 µM	–	> 100 µM	–	> 100 µM
NNC(=O)C(=O)N/N=C(\CCC(=O)Nc1ccc(Cl)cc1)Cc1nc2ccccc2s1	–	> 100 µM	–	> 100 µM	–	> 100 µM	–	> 100 µM	–	67.5 µM	–	–	–	–	–	> 100 µM	–	> 100 µM	–	54.3 µM
CCN(CC)c1ccc(/C=C/C=C2\NC(=O)NC2=O)cc1	2930 nM	34.2 µM	1600 nM	30.6 µM	3060 nM	> 100 µM	1740 nM	24.2 µM	7150 nM	> 100 µM	–	–	3750 nM	> 100 µM	1540 nM	> 100 µM	3220 nM	17.9 µM	3950 nM	> 100 µM
O=C(CCCCC(=O)N/N=C\c1ccccc1O)N/N=C\c1ccccc1O	5130 nM	> 100 µM	3690 nM	> 100 µM	3070 nM	> 100 µM	11300 nM	> 100 µM	2300 nM	> 100 µM	–	–	5650 nM	> 100 µM	1980 nM	6.55 µM	3090 nM	> 100 µM	2500 nM	> 100 µM
COc1ccc2ccc3oc([N+](=O)[O-])cc3c2c1	316 nM	1.1 µM	189 nM	1.21 µM	–	–	155 nM	0.506 µM	55.7 nM	0.355 µM	116 nM	0.247 µM	1080 nM	7.9 µM	251 nM	3.22 µM	277 nM	5.37 µM	157 nM	0.355 µM
C=C1C(=O)O[C@H]2[C@H]1CC/C(COC(=O)NCc1ccc(Cn3c(=O)sn(-c4ccccc4)c3=O)cc1)=C\CC[C@@]1(C)O[C@@H]21	1810 nM	3.37 µM	1520 nM	2.95 µM	–	–	1820 nM	3.44 µM	1620 nM	3.07 µM	2070 nM	4.2 µM	2360 nM	5.63 µM	8520 nM	21.8 µM	2370 nM	5.28 µM	2040 nM	4.15 µM
